These results are taken from US20160075689A1, “POLYMERASE, ENDONUCLEASE, AND HELICASE INHIBITORS AND METHODS OF USING THEREOF” (THE BOARD OF TRUSTEES OF THE UNIVERSITY OF ARKANSAS, priority 2013, published 2016).

Several values for one entry are separate records, joined by “and”; a condition that tells them apart may be missing. Equal values may be shown once.

For orientation: IC50 means the concentration needed to halve the response being measured.

For assay [1], the target named is NS3-4A (Hepatitis C virus genotype 1b, UniProt P26663). The experiment in a line: NS3 protease activity assay. The format is biochemical, HCV. The note with it: 25 μM compound, 50 nM NS3-4A, 100 nM substrate. The method, then: The protease activity of NS3 was analyzed in the presence of 25 μM ITBA-3-79, ITBA-3-82 or ITBA-3-85 by using 50 nM NS3-4A and 100 nM substrate (Ac-Asp-Glu-Asp-EDANS-Glu-Glu-Abu-L-Lactoyl-Ser-Lys DABCYL-NH2). The emission spectra of EDANS and the absorption spectra of DABCYL overlap making the peptide internally quenched. Cleaving of the substrate by the protease results in an increase in fluorescence that can be measured (λex−355 nm; λem, −500 nm). Telapravir (10 μM) was used as a positive control.

For assay [2], the target named is T1, NS3 helicase (Hepatitis C virus genotype 1b, UniProt P26663).
T1 construct: analyze the helicase activity of NS3 helicase in the presence of the compounds; made in house
The experiment in a line: Gel-based helicase assay. In kind it is biochemical, HCV. To be noted: standard helicase assay. As for the experimental part: Benchtop unwinding assays were performed to analyze the helicase activity of NS3 helicase in the presence of the compounds. The unwinding reaction was initiated by mixing the right (N53, compound, assay buffer) and left (radiolabeled substrate, ATP, assay buffer) reactions, which was then quenched. The ssDNA product formed over time is separated from dsDNA substrate by 20% native PAGE. The ratio of dsDNA substrate to ssDNA product is quantified using ImageQuant and the fraction of substrate unwound at each time-point is plotted as a function of time using Kaleidagraph software.

Assay [3] has as its target T2, HCV NS3 helicase (Hepatitis C virus genotype 1b, UniProt P26663).
T2 construct: analyze the helicase activity of NS3 helicase in the presence of the compounds; made in house
Nature of the assay: Fluorescence-based helicase assay. In kind it is biochemical. To be noted: IC50 for inhibition of NS3 helicase, mean ± standard deviation of three data sets. The method, then: A library of compounds was screened using a previously validated quantitative assay that measures helicase activity over time. The assay relies upon helicase-catalyzed displacement of a fluorescently-labeled oligonucleotide (FIG. 13A). The concentration of enzyme and compounds used was 250 nM and 20 μM respectively. The experiments were performed in triplicate. […] Three potential helicase inhibitors were identified using the fluorescence based assay. […] The inhibitor compounds identified in our screen were ITBA-3-79, ITBA-3-82 and ITBA-3-85 (FIG. 14A). […] The IC50 value for ITBA-3-79, ITBA-3-82 and ITBA-3-85-mediated inhibition of NS3 helicase ranged˜20 μM (FIG. 14C). The ATPase activity of NS3 (50 μM) was analyzed in the presence of ITBA-3-79, ITBA-3-82 and ITBA-3-85 using a coupled spectrophotometric assay (Raney and Benkovic 1995, (FIG. 15). The protease activity of NS3 was analyzed in the presence of ITBA-3-79, ITBA-3-82 and ITBA-3-85 by using 50 nM NS3-4A and 100 nM substrate (Ac-Asp-Glu-Asp-EDANS-Glu-Glu-Abu-L-Lactoyl-Ser-Lys DABCYL-NH2, FIG. 15. The NS3 helicase activity was analyzed in the presence of 25 μM ITBA-3-79, ITBA-3-82 and ITBA-3-85 (FIG. 16).
A fluorescence based quantitative assay that measures helicase activity over time was employed to screen the compounds. The concentration of enzyme and compounds used was 250 nM and 20 μM respectively. Helicase catalyzes the unwinding of a FAM-labeled dsDNA and the resulting increase in fluorescence is plotted (λex-485 nm; λem, −528 nm). The slope of the initial part of the plot was used to calculate the percentage helicase activity. […] The IC50 value for ITBA-3-79, ITBA-3-82 and ITBA-3-85-mediated inhibition of NS3 helicase was determined using the same assay.

Assay [4] concerns 22Rv1 cells. The experiment in a line: Cytoprotection against Cisplatin-induced cell death, LDH release assay. In kind it is cell-based, human. To be noted: Cisplatin 60 μM, inhibitor 50 μM. As for the experimental part:
To test cytotoxic activities of the inhibitors, human prostrate carcinoma epithelial 22Rv1 cells, which naturally express EndoG, were exposed to Cisplatin (60 μM) in the presence or absence of PNR-3-80 (50 μM) and cell death was measured by the LDH release assay.
(Release of lactate dehydrogenase indicates damage to the cell membrane.)

The test system of assay [5] is protease. The experiment in a line: Protease activity in NRK-52E cell extract. In kind it is biochemical. The note with it: 0.1 μM and 10 μM. As for the experimental part: (§1) As a follow up to Example 8, the effects of the EndoG inhibitors PNR-3-80 and PNR-3-82, at 0.1 μM and 10 μM each, on the activities of four other enzymes including RNase A, protease, LDH, and SOD in NRK-52E cell extract were examined. NRK-52E cells were grown to ˜80% confluence in […]. The medium was aspirated and the cells were rinsed with ice cold 1×PBS, pH 7.4. The cells were lysed in 50 mM Tris-HCl, pH 7.4, 150 mM NaCl, 1% Triton X-100 for 10 min on ice and then briefly sonicated. Cell debris was removed by centrifugation at 13,000×g for 10 min at 4° C. The supernatant was collected and stored at −80° C. until use. LDH, Protease, Superoxide dismutase (SOD), and Ribonuclease A (RNase A) activities were measured by using CytoTox 96® Non-Radioactive Cytotoxicity Assay kit (Promega, Madison, Wis.), Protease Fluorescent Detection kit (Sigma-Aldrich, Saint Louis, Mo.), SOD determination kit (Sigma-Aldrich, Saint Louis, Mo.), and Ribonuclease A Detection kit (Sigma-Aldrich, Saint Louis, Mo.), respectively, according to the manufacturer's instructions.

Assay [6] deals with RNase A. Nature of the assay: Ribonuclease A activity in NRK-52E cell extract. The format is biochemical. To be noted: 0.1 μM and 10 μM. As for the experimental part:
as §1

Assay [7] has as its target T3, EndoG (Homo sapiens, UniProt Q14249).
T3 sequence (Q14249 49-297): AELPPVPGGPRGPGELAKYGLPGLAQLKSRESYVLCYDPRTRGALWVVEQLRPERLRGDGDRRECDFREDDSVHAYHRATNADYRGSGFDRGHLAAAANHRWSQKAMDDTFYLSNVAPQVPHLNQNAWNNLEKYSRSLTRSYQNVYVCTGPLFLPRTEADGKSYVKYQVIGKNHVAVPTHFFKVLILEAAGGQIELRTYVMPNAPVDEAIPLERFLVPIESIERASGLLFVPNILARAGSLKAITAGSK
The experiment in a line: Plasmid incision assay. The format is biochemical. The note with it: agarose gel, FIG. 9. The method, then: A reaction mixture was prepared containing 0.5 μg pECFP plasmid DNA, 2 mM CaCl2, 5 mM MgCl2, 10 mM Tris-HCl, pH 7.4, 0.5 mM dithiothreitol. The test compound [50 ng in DMSO (1 μl)] was added. Recombinant EndoG was then added to the final concentration of 200 ng/ml and the reaction was incubated for 1 h at 37° C. The reaction was terminated by adding 2 μl of 10 mM Tris-HCl, pH 7.4, 1% SDS, 25 mM EDTA, 7.2 mM bromophenol blue. The samples were run in 1% agarose gel in Tris-acetate-EDTA buffer (40 mM Tris, 20 mM acetic acid, 1 mM EDTA, pH 8), at 7 V/cm for 35 min, and DNA was stained with ethidium bromide. An EagleEye scanning densitometer (Stratagene, La Jolla, Calif.) was utilized to quantify the relative amount of endonuclease-treated plasmid DNA present in a covalently-closed circular (supercoiled) DNA, open circular DNA, or linear DNA, or in a digested form.

Assay [8] has as its system EndoG-expressing PC3 cells. The experiment in a line: Cytoprotection against Docetaxel-induced cell death, LDH release and TUNEL assays. In kind it is cell-based, human. To be noted: Docetaxel 80 μM, inhibitor 50 μM. The method, then:
Docetaxel is an anti-cancer drug used to treat prostate cancer. Human invasive prostate cancer PC3 cells are known to be resistant to anticancer drugs. […] The resulting EndoG-expressing PC3 cells were exposed with Docetaxel (80 μM) in the absence or presence of the inhibitors, PNR-3-80 or PNR-3-82 (50 μM each). The cell death was measured by using two methods, LDH release assay and TUNEL assay. […]

In assay [9] the target is T3, EndoG. The experiment in a line: High-throughput EndoG screening assay. The format is biochemical. The method, then:
(§2) A reaction mixture was prepared in each well of a white 96-well plate (Costar, Corning, N.Y.) as follows: 0.25 μM Cy5.5-labeled oligonucleotide (described in US provisional patent filed Oct. 19, 2012, Ser. No. 61/716,097) 0.3 mM MgCl2, 10 mM Tris-HCl, pH 7.4, 1 μl DMSO containing 5 or 50 ng of test compound, and nuclease-free water for a total reaction volume of 100 μl. The background (negative control) and uninhibited EndoG samples were measured using DMSO only, or DMSO containing recombinant EndoG (4 μg/ml), respectively. After addition of EndoG, fluorescence intensity was kinetically measured on a Bio-Tek Synergy 4.0 plate reader at 37° C. and mean velocity (mRFU/min) within 20 min was automatically calculated by the plate reader. The background was subtracted prior to the calculation of EndoG activity (%). The percent of EndoG activity was calculated from the mean velocity of a compound divided by the mean velocity of DMSO with recombinant EndoG, and the obtained value multiplied by 100.

The target in assay [10] is T4, DNase II (Homo sapiens, UniProt O00115).
T4 sequence (O00115 19-360): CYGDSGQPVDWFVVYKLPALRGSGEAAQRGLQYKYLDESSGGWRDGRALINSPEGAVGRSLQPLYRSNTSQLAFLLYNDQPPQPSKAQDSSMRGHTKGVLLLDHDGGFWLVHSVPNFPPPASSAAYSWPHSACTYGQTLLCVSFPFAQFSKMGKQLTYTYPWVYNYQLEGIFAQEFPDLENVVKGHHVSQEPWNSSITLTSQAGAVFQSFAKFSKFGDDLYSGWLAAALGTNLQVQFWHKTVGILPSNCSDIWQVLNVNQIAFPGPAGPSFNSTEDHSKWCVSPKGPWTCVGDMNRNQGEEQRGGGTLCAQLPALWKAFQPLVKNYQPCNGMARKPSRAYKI
The experiment in a line: Endonuclease screening assay, specificity. The format is biochemical.
Text: (§3) Specificity of a potential inhibitor is important for any in vitro or in vivo application, and generally defines the usefulness of an inhibitor. To determine specificity of the inhibitors for the two EndoG inhibitors, PNR-3-80 and PNR-3-82, their IC50 values for EndoG were compared using the screening assay with the IC50 values for two other endonucleases, DNase I and DNAse II (FIG. 11). These endonucleases were chosen because they represent the majority of endonuclease activity in most mammalian cells and because of their availability as pure enzymes.
as §2

For assay [11], the target named is T5, DNase I (Homo sapiens, UniProt P24855).
T5 sequence (P24855 23-282): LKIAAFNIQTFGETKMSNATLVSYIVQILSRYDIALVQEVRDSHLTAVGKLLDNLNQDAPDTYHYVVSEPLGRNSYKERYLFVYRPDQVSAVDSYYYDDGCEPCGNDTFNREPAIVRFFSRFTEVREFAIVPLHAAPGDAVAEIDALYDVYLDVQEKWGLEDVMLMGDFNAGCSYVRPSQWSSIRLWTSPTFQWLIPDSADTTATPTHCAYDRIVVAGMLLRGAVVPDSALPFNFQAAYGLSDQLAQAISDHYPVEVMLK
Nature of the assay: Endonuclease screening assay, specificity. The format is biochemical.
Text: as §3, §2

The subject of assay [12] is SOD. The experiment in a line: SOD activity in NRK-52E cell extract. The format is biochemical. To be noted: 0.1 μM and 10 μM. As for the experimental part: as §1
The subject of assay [13] is LDH. The experiment in a line: LDH activity in NRK-52E cell extract. In kind it is biochemical. To be noted: 0.1 μM and 10 μM. The method, then: as §1

T2 sequence (P26663 1027-1657): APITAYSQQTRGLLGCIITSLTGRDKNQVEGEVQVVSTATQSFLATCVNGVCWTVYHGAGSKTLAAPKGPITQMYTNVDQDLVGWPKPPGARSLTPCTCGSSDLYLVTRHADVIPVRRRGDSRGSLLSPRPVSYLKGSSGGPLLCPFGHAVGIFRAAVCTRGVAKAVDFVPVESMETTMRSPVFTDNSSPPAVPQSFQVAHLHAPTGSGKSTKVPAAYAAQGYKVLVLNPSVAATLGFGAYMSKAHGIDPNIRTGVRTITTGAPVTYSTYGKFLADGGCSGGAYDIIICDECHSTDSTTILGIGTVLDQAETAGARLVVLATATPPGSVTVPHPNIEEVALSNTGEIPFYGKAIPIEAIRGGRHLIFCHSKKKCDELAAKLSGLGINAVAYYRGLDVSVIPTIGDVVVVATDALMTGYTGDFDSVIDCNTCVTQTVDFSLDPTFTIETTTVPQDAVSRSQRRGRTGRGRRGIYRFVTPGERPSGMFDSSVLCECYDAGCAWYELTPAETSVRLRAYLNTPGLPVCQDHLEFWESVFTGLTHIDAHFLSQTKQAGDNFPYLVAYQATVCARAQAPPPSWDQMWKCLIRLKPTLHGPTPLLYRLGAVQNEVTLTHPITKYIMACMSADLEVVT
T1 sequence (P26663 1027-1657): as above
NS3-4A, sequence (P26663 1027-1657): as above
NS3-4A, sequence (P26663 1658-1711): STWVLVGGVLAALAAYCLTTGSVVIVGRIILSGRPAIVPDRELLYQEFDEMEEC

As for `O=C1NC(=S)NC(=O)C1=Cc1cn(C(=O)c2ccc3ccccc3c2)c2ccccc12` [ITBA-3-79], in [1], the NS3 protease activity result is listed as “do not block protease activity”. Further, the “NS3 helicase activity, gel electrophoresis” value in [2] is given as “confirmed the inhibition”. Moreover, in [3], the IC50 was ~20 µM and 21.6 µM.

Turning to `COc1ccc2c(c1)c(C=C1C(=O)NC(=S)NC1=O)cn2C(=O)c1cccc2ccccc12` [ITBA-3-85], in [1], the NS3 protease activity entry is given as “do not block protease activity”. The “NS3 helicase activity, gel electrophoresis” value in [2] was “confirmed the inhibition”. Moreover, in [3], the half-inhibitory concentration (IC50) was ~20 µM and 23.5 µM.

`O=C1NC(=S)NC(=O)C1=Cc1cn(C(=O)c2ccc3ccccc3c2)c2ccc(Cl)cc12` [PNR-3-80]: the “inhibition of Cisplatin-induced cell death” value is “significant and complete inhibition” in [4]; “complete inhibition” in assay [4] (listed as P-NR-30). Moreover, the protease activity result in assay [5] was “none of the two tested compounds had any inhibiting activity”. Further, the “RNase A activity” value in [6] is given as “none of the two tested compounds had any inhibiting activity”. Besides, the “protection of supercoiled plasmid DNA from degradation by EndoG” value in [7] is recorded as “significantly protected the plasmid DNA from degradation”. In addition, the “cytoprotection against Docetaxel-induced cell death” value in [8] is “cytoprotective”. The remaining activity at 1 µM in [9] (20 min, compound 1 μM, read-out: % EndoG activity in the presence of the compound) is 36%. The IC50 in assay [9] (IC50 against EndoG, EndoG screening assay) was 0.671 µM and 0.67 µM; in [11], 11.2 µM. Besides, the “effect on DNase II activity” value in [10] is “did not have any effect”. The SOD activity entry in [12] is given as “none of the two tested compounds had any inhibiting activity”. Also, in [13], the LDH activity entry is “none of the two tested compounds had any inhibiting activity”.

As to `[Cl-].[Cl-].[Zn+2]` [ZnCl2, reference compound], in assay [7], the “protection of supercoiled plasmid DNA from degradation by EndoG” value is “inhibited”.
